Measured values from PMC6345968, “Structural basis for species-selective targeting of Hsp90 in a pathogenic fungus” (Nature Communications, 2019).
Where two headings read alike, the source gives them in different places.

Experiments:
[1] = target: T1, Hsp90 in C. albicans (SC5314) lysate (Candida albicans, UniProt P46598); assay: biochemical; assay type: binding; conditions: for FP signal: raw
T1 construct: endogenous in cells; host or cells: C. albicans SC5314 whole-cell lysate

Hsp90 in HEPG2 lysate = conditions: for FP signal: raw
[2] = EC50 relative to GdA, SC5314 lysate
[3] = EC50 relative to GdA, HEPG2 lysate
[4] = HEPG2 lysate, log concentration 0.137354 (1.372 nM)
[5] = HEPG2 lysate, log concentration 0.61437 (4.115 nM)
[6] = HEPG2 lysate, log concentration 1.09153 (12.346 nM)
[7] = HEPG2 lysate, log concentration 1.56864 (37.037 nM)
[8] = HEPG2 lysate, log concentration 2.04576 (111.111 nM)
[9] = HEPG2 lysate, log concentration 2.52288 (333.333 nM)
[10] = HEPG2 lysate, log concentration 3 (1000 nM)
[11] = HEPG2 lysate, log concentration 3.47712 (3000 nM)
[12] = HEPG2 lysate, log concentration -0.340084 (0.457 nM)
[13] = SC5314 lysate, 0.457 nM compound
[14] = SC5314 lysate, 1.372 nM compound
[15] = SC5314 lysate, 4.115 nM compound
[16] = SC5314 lysate, 12.346 nM compound
[17] = SC5314 lysate, 37.037 nM compound
[18] = SC5314 lysate, 111.111 nM compound
[19] = SC5314 lysate, 333.333 nM compound
[20] = SC5314 lysate, 1000 nM compound
[21] = SC5314 lysate, 3000 nM compound

T1 sequence (P46598 whole entry): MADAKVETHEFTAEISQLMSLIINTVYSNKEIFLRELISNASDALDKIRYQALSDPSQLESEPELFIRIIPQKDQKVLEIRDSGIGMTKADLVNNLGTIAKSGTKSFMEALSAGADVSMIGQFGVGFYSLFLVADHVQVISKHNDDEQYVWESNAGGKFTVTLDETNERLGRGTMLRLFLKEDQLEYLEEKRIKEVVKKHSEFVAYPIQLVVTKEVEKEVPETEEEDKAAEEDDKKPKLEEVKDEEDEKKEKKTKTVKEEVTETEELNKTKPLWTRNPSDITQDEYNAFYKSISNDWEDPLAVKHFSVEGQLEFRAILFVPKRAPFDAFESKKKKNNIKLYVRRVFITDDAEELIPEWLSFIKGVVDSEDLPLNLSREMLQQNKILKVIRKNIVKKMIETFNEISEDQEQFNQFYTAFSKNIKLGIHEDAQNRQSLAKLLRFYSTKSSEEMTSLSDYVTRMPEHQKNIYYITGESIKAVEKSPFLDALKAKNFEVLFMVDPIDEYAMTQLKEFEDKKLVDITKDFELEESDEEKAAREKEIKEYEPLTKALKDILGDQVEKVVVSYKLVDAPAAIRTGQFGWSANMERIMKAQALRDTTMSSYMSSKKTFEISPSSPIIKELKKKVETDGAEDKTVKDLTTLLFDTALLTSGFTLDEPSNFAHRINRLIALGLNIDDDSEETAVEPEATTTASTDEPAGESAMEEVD

CC1(C)CC(=O)c2c(C(F)(F)F)nn(-c3ccc(C(N)=O)c(N[C@H]4CC[C@H](OC(=O)CN)CC4)c3)c2C1 [SNX-5422]
Hep/SC ([1]; EC50 HEPG2 / EC50 SC5314): 5.438 | Rel. to GdA [1, 2]: 0.6171 | Hep/Sc rel. Gda ([1]; Hep/SC ratio relative to that of GdA): 4.063 | FP signal (raw) ([1]; SC5314 lysate, 0.457 nM): 205 | FP signal (raw) ([1]; SC5314 lysate, 1.372 nM): 197 | FP signal (raw) ([1]; SC5314 lysate, 4.115 nM): 177 | FP signal (raw) ([1]; SC5314 lysate, 12.346 nM): 118 | FP signal (raw) ([1]; SC5314 lysate, 37.037 nM): 60 | FP signal (raw) ([1]; SC5314 lysate, 111.111 nM): 41 | FP signal (raw) ([1]; SC5314 lysate, 333.333 nM): 35 | FP signal (raw) ([1]; SC5314 lysate, 1000 nM): 33 | FP signal (raw) ([1]; SC5314 lysate, 3000 nM): 34 | EC50 ([1]; SC5314 lysate, read-out: EC50): 12.1 nM | Rel. to GdA (Hsp90 in HEPG2 lysate; [3]): 2.507 | EC50 (Hsp90 in HEPG2 lysate; HEPG2 lysate): 65.6 nM | FP signal, Fxn Control (Hsp90 in HEPG2 lysate; [4]): 0.9858 | FP signal, Fxn Control (Hsp90 in HEPG2 lysate; [5]): 0.9717 | FP signal, Fxn Control (Hsp90 in HEPG2 lysate; [6]): 0.8821 | FP signal, Fxn Control (Hsp90 in HEPG2 lysate; [7]): 0.7028 | FP signal, Fxn Control (Hsp90 in HEPG2 lysate; [8]): 0.4953 | FP signal, Fxn Control (Hsp90 in HEPG2 lysate; [9]): 0.3632 | FP signal, Fxn Control (Hsp90 in HEPG2 lysate; [10]): 0.25 | FP signal, Fxn Control (Hsp90 in HEPG2 lysate; [11]): 0.217 | FP signal, Fxn Control (Hsp90 in HEPG2 lysate; [12]): 0.9858 | FP signal (raw) (Hsp90 in HEPG2 lysate; HepG2 lysate, 0.457 nM): 209 | FP signal (raw) (Hsp90 in HEPG2 lysate; HepG2 lysate, 1.372 nM): 209 | FP signal (raw) (Hsp90 in HEPG2 lysate; HepG2 lysate, 4.115 nM): 206 | FP signal (raw) (Hsp90 in HEPG2 lysate; HepG2 lysate, 12.346 nM): 187 | FP signal (raw) (Hsp90 in HEPG2 lysate; HepG2 lysate, 37.037 nM): 149 | FP signal (raw) (Hsp90 in HEPG2 lysate; HepG2 lysate, 111.111 nM): 105 | FP signal (raw) (Hsp90 in HEPG2 lysate; HepG2 lysate, 333.333 nM): 77 | FP signal (raw) (Hsp90 in HEPG2 lysate; HepG2 lysate, 1000 nM): 53 | FP signal (raw) (Hsp90 in HEPG2 lysate; HepG2 lysate, 3000 nM): 46

CC1CC2OC2C=CC=CC(=NOCCN2CCCC2=O)Cc2c(Cl)c(O)cc(O)c2C(=O)O1 (stereo not shown) [KF58333, reference compound]
EC50 ([1]; EC50, SC5314 lysate, not normalized, oxime panel experiment 220817): 6.86 nM | Ratio re. GdA [1, 2]: 0.4034 | FP signal (raw) ([1]; SC5314 lysate, 0.457 nM): 203 | FP signal relative to 0 nM [1, 13]: 0.9807 | FP signal [1, 13]: 203 | FP signal (raw) ([1]; SC5314 lysate, 1.372 nM): 193 | FP signal relative to 0 nM [1, 14]: 0.9324 | FP signal [1, 14]: 193 | FP signal (raw) ([1]; SC5314 lysate, 4.115 nM): 162 | FP signal relative to 0 nM [1, 15]: 0.7826 | FP signal [1, 15]: 162 | FP signal (raw) ([1]; SC5314 lysate, 12.346 nM): 71 | FP signal relative to 0 nM [1, 16]: 0.343 | FP signal [1, 16]: 71 | FP signal (raw) ([1]; SC5314 lysate, 37.037 nM): 44 | FP signal relative to 0 nM [1, 17]: 0.2126 | FP signal [1, 17]: 44 | FP signal (raw) ([1]; SC5314 lysate, 111.111 nM): 38 | FP signal relative to 0 nM [1, 18]: 0.1836 | FP signal [1, 18]: 38 | FP signal (raw) ([1]; SC5314 lysate, 333.333 nM): 35 | FP signal relative to 0 nM [1, 19]: 0.1691 | FP signal [1, 19]: 35 | FP signal (raw) ([1]; SC5314 lysate, 1000 nM): 37 | FP signal relative to 0 nM [1, 20]: 0.1787 | FP signal [1, 20]: 37 | FP signal (raw) ([1]; SC5314 lysate, 3000 nM): 36 | FP signal relative to 0 nM [1, 21]: 0.1739 | FP signal [1, 21]: 36 | HepG2/SC5314 ([1]; ratio of GdA-normalized EC50s, human over fungal lysate): 1.165 | HepG2/SC5314 ([1]; ratio of GdA-relative EC50 ratios, HepG2 over SC5314): 1.165 | Ratio rel. GdA (HepG2) (Hsp90 in HEPG2 lysate; EC50 / EC50 of GdA in HepG2 lysate): 0.4698 | Ratio rel. GdA (HepG2) (Hsp90 in HEPG2 lysate; [3]): 0.4698 | FP signal, Fxn Control (Hsp90 in HEPG2 lysate; [4]): 0.9604 | FP signal, Fxn Control (Hsp90 in HEPG2 lysate; [5]): 0.9307 | FP signal, Fxn Control (Hsp90 in HEPG2 lysate; [6]): 0.5149 | FP signal, Fxn Control (Hsp90 in HEPG2 lysate; [7]): 0.302 | FP signal, Fxn Control (Hsp90 in HEPG2 lysate; [8]): 0.2277 | FP signal, Fxn Control (Hsp90 in HEPG2 lysate; [9]): 0.2129 | FP signal, Fxn Control (Hsp90 in HEPG2 lysate; [10]): 0.2277 | FP signal, Fxn Control (Hsp90 in HEPG2 lysate; [11]): 0.2475 | FP signal, Fxn Control (Hsp90 in HEPG2 lysate; [12]): 0.9703 | FP signal (raw) (Hsp90 in HEPG2 lysate; HepG2 lysate, 0.457 nM): 196 | FP signal (Hsp90 in HEPG2 lysate; HepG2 lysate, 0.457 nM compound): 196 | FP signal (raw) (Hsp90 in HEPG2 lysate; HepG2 lysate, 1.372 nM): 194 | FP signal (Hsp90 in HEPG2 lysate; HepG2 lysate, 1.372 nM compound): 194 | FP signal (raw) (Hsp90 in HEPG2 lysate; HepG2 lysate, 4.115 nM): 188 | FP signal (Hsp90 in HEPG2 lysate; HepG2 lysate, 4.115 nM compound): 188 | FP signal (raw) (Hsp90 in HEPG2 lysate; HepG2 lysate, 12.346 nM): 104 | FP signal (Hsp90 in HEPG2 lysate; HepG2 lysate, 12.346 nM compound): 104 | FP signal (raw) (Hsp90 in HEPG2 lysate; HepG2 lysate, 37.037 nM): 61 | FP signal (Hsp90 in HEPG2 lysate; HepG2 lysate, 37.037 nM compound): 61 | FP signal (raw) (Hsp90 in HEPG2 lysate; HepG2 lysate, 111.111 nM): 46 | FP signal (Hsp90 in HEPG2 lysate; HepG2 lysate, 111.111 nM compound): 46 | FP signal (raw) (Hsp90 in HEPG2 lysate; HepG2 lysate, 333.333 nM): 43 | FP signal (Hsp90 in HEPG2 lysate; HepG2 lysate, 333.333 nM compound): 43 | FP signal (raw) (Hsp90 in HEPG2 lysate; HepG2 lysate, 1000 nM): 46 | FP signal (Hsp90 in HEPG2 lysate; HepG2 lysate, 1000 nM compound): 46 | FP signal (raw) (Hsp90 in HEPG2 lysate; HepG2 lysate, 3000 nM): 50 | FP signal (Hsp90 in HEPG2 lysate; HepG2 lysate, 3000 nM compound): 50 | EC50 (Hsp90 in HEPG2 lysate; HepG2 lysate, oxime panel experiment 220817): 10.4 nM
